Assay results as given in ChEMBL document CHEMBL5614421, “Structure-activity relationship study of Pseudellone C as anti-glioma agents by targeting TNF/TNFR signaling pathway” (Eur J Med Chem, 2024).
Active and inactive are the calls of the source. The calls are words filed in the database; no cut-off is given here.

Legend:
[1] = system: U-87 MG; assay: Induction of apoptosis in human U-87 MG cells assessed as early apoptotic cells at 10 uM incubated for 24 hrs by Annexin V-APC/7-AAD staining based flow cytometric analysis (reference value: 1.59 %); format: functional, U-87MG ATCC
[2] = system: U-87 MG; assay: Induction of apoptosis in human U-87 MG cells assessed as early apoptotic cells at 20 uM incubated for 48 hrs by Annexin V-APC/7-AAD staining based flow cytometric analysis (reference value: 0.94 %); format: functional, U-87MG ATCC
[3] = system: LN-229; assay: Antiproliferative activity against human LN-229 cells assessed as inhibition of cell growth incubated for 68 hrs by CCK-8 assay; format: functional, cell-based; conditions: LN-229, 68 h
[4] = system: LN-229; assay: Induction of apoptosis in human LN-229 cells assessed as early apoptotic cells at 20 uM incubated for 12 hrs by Annexin V-APC/7-AAD staining based flow cytometric analysis (reference value: 2.46 %); format: functional
[5] = system: U-87 MG; assay: Induction of apoptosis in human U-87 MG cells assessed as late apoptotic cells at 5 uM incubated for 24 hrs by Annexin V-APC/7-AAD staining based flow cytometric analysis (reference value: 4.22 %); format: functional, U-87MG ATCC
[6] = system: U-87 MG; assay: Induction of apoptosis in human U-87 MG cells assessed as early apoptotic cells at 20 uM incubated for 24 hrs by Annexin V-APC/7-AAD staining based flow cytometric analysis (reference value: 0.94 %); format: functional, U-87MG ATCC
[7] = system: U-87 MG; assay: Induction of apoptosis in human U-87 MG cells assessed as viable cells at 20 uM incubated for 24 hrs by Annexin V-APC/7-AAD staining based flow cytometric analysis (reference value: 94.6 %); format: functional, U-87MG ATCC; conditions: read-out: Activity
[8] = system: U-87 MG; assay: Induction of apoptosis in human U-87 MG cells assessed as late apoptotic cells at 20 uM incubated for 48 hrs by Annexin V-APC/7-AAD staining based flow cytometric analysis (reference value: 3.44 %); format: functional, U-87MG ATCC
[9] = system: LN-229; assay: Induction of apoptosis in human LN-229 cells assessed as viable cells at 10 uM incubated for 24 hrs by Annexin V-APC/7-AAD staining based flow cytometric analysis (reference value: 95.4 %); format: functional; conditions: read-out: Activity
[10] = system: U-87 MG; assay: Induction of apoptosis in human U-87 MG cells assessed as necrotic cells at 20 uM incubated for 48 hrs by Annexin V-APC/7-AAD staining based flow cytometric analysis (reference value: 1 %); format: functional, U-87MG ATCC
[11] = system: LN-229; assay: Induction of apoptosis in human LN-229 cells assessed as necrotic cells at 20 uM incubated for 12 hrs by Annexin V-APC/7-AAD staining based flow cytometric analysis (reference value: 0.7 %); format: functional
[12] = system: LN-229; assay: Induction of apoptosis in human LN-229 cells assessed as late apoptotic cells at 20 uM incubated for 24 hrs in presence of R7050 by Annexin V-APC/7-AAD staining based flow cytometric analysis (reference value: 4.86 %); format: functional
[13] = system: LN-229; assay: Induction of apoptosis in human LN-229 cells assessed as early apoptotic cells at 20 uM incubated for 24 hrs by Annexin V-APC/7-AAD staining based flow cytometric analysis (reference value: 2.46 %); format: functional
[14] = system: U-87 MG; assay: Induction of apoptosis in human U-87 MG cells at 10 uM incubated for 48 hrs by Annexin V-APC/7-AAD staining based flow cytometric analysis (reference value: 5.43 +/- 0.54 %); format: functional, U-87MG ATCC
[15] = system: U-87 MG; assay: Induction of apoptosis in human U-87 MG cells at 20 uM incubated for 24 hrs by Annexin V-APC/7-AAD staining based flow cytometric analysis (reference value: 5.67 +/- 1.49 %); format: functional, U-87MG ATCC
[16] = system: LN-229; assay: Induction of apoptosis in human LN-229 cells assessed as reduction in Bcl-2/Bax ratio at 5 to 20 uM incubated for 24 hrs by Western blot analysis; format: functional, cell-based; conditions: dose 5-20 µM
[17] = system: LN-229; assay: Induction of apoptosis in human LN-229 cells assessed as necrotic cells at 5 uM incubated for 24 hrs by Annexin V-APC/7-AAD staining based flow cytometric analysis (reference value: 0.56 %); format: functional
[18] = system: LN-229; assay: Induction of apoptosis in human LN-229 cells assessed as late apoptotic cells at 20 uM incubated for 12 hrs by Annexin V-APC/7-AAD staining based flow cytometric analysis (reference value: 5.1 %); format: functional
[19] = system: U-87 MG; assay: Induction of apoptosis in human U-87 MG cells assessed as necrotic cells at 5 uM incubated for 24 hrs by Annexin V-APC/7-AAD staining based flow cytometric analysis (reference value: 0.21 %); format: functional, U-87MG ATCC
[20] = system: U-87 MG; assay: Induction of apoptosis in human U-87 MG cells assessed as early apoptotic cells at 20 uM incubated for 12 hrs by Annexin V-APC/7-AAD staining based flow cytometric analysis (reference value: 0.94 %); format: functional, U-87MG ATCC
[21] = system: LN-229; assay: Induction of apoptosis in human LN-229 cells at 20 uM incubated for 24 hrs by Annexin V-APC/7-AAD staining based flow cytometric analysis relative to control; format: functional
[22] = system: LN-229; assay: Induction of apoptosis in human LN-229 cells assessed as late apoptotic cells at 10 uM incubated for 24 hrs by Annexin V-APC/7-AAD staining based flow cytometric analysis (reference value: 3.56 %); format: functional
[23] = system: U-87 MG; assay: Induction of apoptosis in human U-87 MG cells assessed as early apoptotic cells at 20 uM incubated for 24 hrs by Annexin V-APC/7-AAD staining based flow cytometric analysis (reference value: 3.44 %); format: functional, U-87MG ATCC
[24] = system: LN-229; assay: Induction of apoptosis in human LN-229 cells assessed as early apoptotic cells at 20 uM incubated for 24 hrs by Annexin V-APC/7-AAD staining based flow cytometric analysis (reference value: 0.91 %); format: functional
[25] = system: LN-229; assay: Induction of apoptosis in human LN-229 cells assessed as viable cells at 20 uM incubated for 48 hrs by Annexin V-APC/7-AAD staining based flow cytometric analysis (reference value: 91.7 %); format: functional; conditions: read-out: Activity
[26] = system: LN-229; assay: Induction of apoptosis in human LN-229 cells assessed as early apoptotic cells at 5 uM incubated for 24 hrs by Annexin V-APC/7-AAD staining based flow cytometric analysis (reference value: 0.45 %); format: functional
[27] = system: LN-229; assay: Induction of apoptosis in human LN-229 cells assessed as late apoptotic cells at 20 uM incubated for 48 hrs by Annexin V-APC/7-AAD staining based flow cytometric analysis (reference value: 5.1 %); format: functional
[28] = system: LN-229; assay: Induction of apoptosis in human LN-229 cells assessed as viable cells at 20 uM incubated for 12 hrs by Annexin V-APC/7-AAD staining based flow cytometric analysis (reference value: 91.7 %); format: functional; conditions: read-out: Activity
[29] = system: U-87 MG; assay: Induction of apoptosis in human U-87 MG cells assessed as viable cells at 20 uM incubated for 24 hrs by Annexin V-APC/7-AAD staining based flow cytometric analysis (reference value: 94 %); format: functional, U-87MG ATCC; conditions: read-out: Activity
[30] = system: LN-229; assay: Induction of apoptosis in human LN-229 cells assessed as viable cells at 20 uM incubated for 24 hrs in presence of R7050 by Annexin V-APC/7-AAD staining based flow cytometric analysis (reference value: 92.3 %); format: functional; conditions: read-out: Activity
[31] = system: U-87 MG; assay: Induction of apoptosis in human U-87 MG cells assessed as early apoptotic cells at 5 uM incubated for 24 hrs by Annexin V-APC/7-AAD staining based flow cytometric analysis (reference value: 1.59 %); format: functional, U-87MG ATCC
[32] = system: LN-229; assay: Induction of apoptosis in human LN-229 cells assessed as early apoptotic cells at 20 uM incubated for 24 hrs by Annexin V-APC/7-AAD staining based flow cytometric analysis (reference value: 0.45 %); format: functional

CCCCCCCNC(=O)[C@H](Cc1c[nH]c2ccccc12)NC(=O)C(C)(c1c[nH]c2ccccc12)c1c[nH]c2ccccc12
Activity [1]: 4.46%
Activity [2]: 5.06%
IC50 [3]: 10.8 µM
Activity [4]: 1.76%
Activity [5]: 4.92%
Activity [6]: 2.6%
viability at 20 µM [7]: 92%
Activity [8]: 11.6%
viability at 10 µM [9]: 88.1%
Activity [10]: 4.65%
Activity [11]: 1.45%
Activity [12]: 5.88%
Activity [13]: 13%
Activity [14]: 17.37%
Activity [15]: 13.95%
Activity [16]: Active
Activity [17]: 0.46%
Activity [18]: 4.06%
Activity [19]: 0.14%
Activity [20]: 1.53%
Activity [21]: 31.44%
Activity [22]: 6.38%
Activity [23]: 16.8%
Activity [24]: 24.2%
viability at 20 µM [25]: 37.7%
Activity [26]: 0.82%
Activity [27]: 41.9%
viability at 20 µM [28]: 92.7%
viability at 20 µM [29]: 74.3%
viability at 20 µM [30]: 91.4%
Activity [31]: 2.06%
Activity [32]: 13.8%
